Legend:
[1] = target: T1, Nitric oxide synthase, inducible (Mus musculus, UniProt P29477); parameters: species or system Escherichia coli;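 note: inhibition of iNOS enzyme activity measured with L-arginine as substrate; in other assays of this panel Not Active means under 50% inhibition at 10 µM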
T1 sequence (P29477 whole entry): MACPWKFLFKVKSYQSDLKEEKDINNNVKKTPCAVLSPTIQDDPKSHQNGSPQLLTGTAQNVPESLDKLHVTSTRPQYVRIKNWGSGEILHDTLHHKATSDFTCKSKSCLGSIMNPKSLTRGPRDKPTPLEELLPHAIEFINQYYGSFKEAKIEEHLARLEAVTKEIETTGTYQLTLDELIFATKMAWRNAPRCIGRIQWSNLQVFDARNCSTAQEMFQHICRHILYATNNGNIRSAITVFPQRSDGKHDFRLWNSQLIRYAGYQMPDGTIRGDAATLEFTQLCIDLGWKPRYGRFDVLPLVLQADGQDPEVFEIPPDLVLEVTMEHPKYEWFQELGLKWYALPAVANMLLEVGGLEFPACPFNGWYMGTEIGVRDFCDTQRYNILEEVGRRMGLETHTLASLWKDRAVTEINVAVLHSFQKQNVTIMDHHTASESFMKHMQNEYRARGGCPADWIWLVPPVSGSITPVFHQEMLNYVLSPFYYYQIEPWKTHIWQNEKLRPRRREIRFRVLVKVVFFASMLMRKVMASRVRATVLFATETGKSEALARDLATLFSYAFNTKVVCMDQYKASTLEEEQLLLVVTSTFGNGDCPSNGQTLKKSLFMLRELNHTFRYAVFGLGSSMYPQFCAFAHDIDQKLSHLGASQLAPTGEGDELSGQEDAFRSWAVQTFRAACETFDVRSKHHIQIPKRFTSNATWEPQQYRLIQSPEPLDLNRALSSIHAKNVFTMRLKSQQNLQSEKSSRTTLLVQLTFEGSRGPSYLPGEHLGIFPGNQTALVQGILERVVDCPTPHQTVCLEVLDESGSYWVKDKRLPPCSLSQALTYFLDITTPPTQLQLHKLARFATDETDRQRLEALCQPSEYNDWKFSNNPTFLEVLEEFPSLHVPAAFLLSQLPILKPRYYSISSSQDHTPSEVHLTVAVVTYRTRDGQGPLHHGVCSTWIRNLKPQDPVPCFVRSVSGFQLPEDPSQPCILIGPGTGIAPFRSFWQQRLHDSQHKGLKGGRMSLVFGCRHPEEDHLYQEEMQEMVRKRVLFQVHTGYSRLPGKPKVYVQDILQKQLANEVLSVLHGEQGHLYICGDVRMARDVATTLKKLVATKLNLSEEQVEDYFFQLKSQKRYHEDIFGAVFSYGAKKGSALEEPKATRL

[2] = DRUGMATRIX: GABAA, Muscimol, Central radioligand binding (ligand: [3H] Muscimol); type: cell membranes, Rattus norvegicus, Wistar, Brain, Membrane; details: Not Active = under 50% inhibition at 10 µM
Vasopressin V1a receptor = Vasopressin V1a receptor (Homo sapiens, UniProt P37288); type: cell membranes, Membrane; details: hek293; note: in other assays of this panel Not Active means under 50% inhibition at 10 µM
[3] = target: Protein kinase C alpha type (Homo sapiens, UniProt P17252); type: cell-based; details: sf9;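 note: inhibition of PKCalpha kinase activity measured in an enzyme assay with histone as the phosphorylation substrate; in other assays of this panel Not Active means under 50% inhibition at 10 µM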
[4] = target: T2, Muscarinic acetylcholine receptor M4 (Homo sapiens, UniProt P08173); type: cell membranes, CHO-K1, Membrane; details: cho-k1; note: in other assays of this panel Not Active means under 50% inhibition at 10 µM
T2 sequence (P08173 whole entry): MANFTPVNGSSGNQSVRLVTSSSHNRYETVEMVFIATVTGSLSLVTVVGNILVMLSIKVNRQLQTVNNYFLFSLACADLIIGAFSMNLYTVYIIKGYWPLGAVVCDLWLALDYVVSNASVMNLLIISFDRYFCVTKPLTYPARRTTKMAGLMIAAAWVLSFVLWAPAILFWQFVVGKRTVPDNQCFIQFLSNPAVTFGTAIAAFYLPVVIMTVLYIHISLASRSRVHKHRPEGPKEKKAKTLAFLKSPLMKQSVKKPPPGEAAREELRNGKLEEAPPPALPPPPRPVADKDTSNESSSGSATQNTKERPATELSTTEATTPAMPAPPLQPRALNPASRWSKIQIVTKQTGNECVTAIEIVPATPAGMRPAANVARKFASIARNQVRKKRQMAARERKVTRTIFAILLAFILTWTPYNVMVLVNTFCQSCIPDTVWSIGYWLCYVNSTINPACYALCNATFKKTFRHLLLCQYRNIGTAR

[5] = target: Aldo-keto reductase family 1 member B1 (Rattus norvegicus, UniProt P07943); test: biochemical; type: tissue-based, Lens of camera-type eye
Adenosine receptor A1 = target: T3, Adenosine receptor A1 (Homo sapiens, UniProt P30542); type: cell membranes, Membrane; details: cho
T3 sequence (P30542 whole entry): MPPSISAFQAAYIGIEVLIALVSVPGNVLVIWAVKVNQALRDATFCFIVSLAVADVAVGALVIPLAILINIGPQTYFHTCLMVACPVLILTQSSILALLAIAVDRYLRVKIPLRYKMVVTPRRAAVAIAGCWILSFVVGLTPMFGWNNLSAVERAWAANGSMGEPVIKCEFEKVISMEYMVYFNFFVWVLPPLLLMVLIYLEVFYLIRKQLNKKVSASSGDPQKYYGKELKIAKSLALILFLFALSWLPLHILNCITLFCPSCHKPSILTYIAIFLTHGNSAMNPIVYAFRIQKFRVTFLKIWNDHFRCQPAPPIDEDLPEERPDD

[6] = target: Tyrosine-protein kinase Lck (Homo sapiens, UniProt P06239); test: DRUGMATRIX: Protein Tyrosine Kinase, LCK enzyme inhibition (substrate: Poly(Glu:Tyr)); type: cell-based, Insect cells; details: insect cells; Not Active = under 50% inhibition at 10 µM
Adenosine receptor A2a = Adenosine receptor A2a (Homo sapiens, UniProt P29274); test: DRUGMATRIX: Adenosine A2A radioligand binding (ligand: […]); type: cell membranes, HEK293, Membrane; details: hek293; Not Active = under 50% inhibition at 10 µM
[7] = target: Vascular endothelial growth factor receptor 1 (Homo sapiens, UniProt P17948); type: cell-based; details: huvec; note: in other assays of this panel Not Active means under 50% inhibition at 10 µM
[8] = DRUGMATRIX: GABAA, Chloride Channel, TBOB radioligand binding (ligand: [3H] TBOB); type: cell membranes, Rattus norvegicus, Wistar, Cerebral cortex, Membrane; details: Not Active = under 50% inhibition at 10 µM

Vasopressin V1a receptor, sequence (P37288 whole entry): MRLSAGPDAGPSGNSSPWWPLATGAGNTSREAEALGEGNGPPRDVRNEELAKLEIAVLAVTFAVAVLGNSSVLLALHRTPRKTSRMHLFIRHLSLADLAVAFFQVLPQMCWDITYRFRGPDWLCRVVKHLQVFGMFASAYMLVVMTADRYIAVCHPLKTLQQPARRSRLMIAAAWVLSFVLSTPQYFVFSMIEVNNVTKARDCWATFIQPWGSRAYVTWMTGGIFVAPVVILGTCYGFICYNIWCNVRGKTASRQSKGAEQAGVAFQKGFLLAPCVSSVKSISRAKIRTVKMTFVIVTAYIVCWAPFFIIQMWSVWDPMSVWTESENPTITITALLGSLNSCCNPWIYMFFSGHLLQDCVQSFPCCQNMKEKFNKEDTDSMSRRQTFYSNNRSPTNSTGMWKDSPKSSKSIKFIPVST
Tyrosine-protein kinase Lck, sequence (P06239 whole entry): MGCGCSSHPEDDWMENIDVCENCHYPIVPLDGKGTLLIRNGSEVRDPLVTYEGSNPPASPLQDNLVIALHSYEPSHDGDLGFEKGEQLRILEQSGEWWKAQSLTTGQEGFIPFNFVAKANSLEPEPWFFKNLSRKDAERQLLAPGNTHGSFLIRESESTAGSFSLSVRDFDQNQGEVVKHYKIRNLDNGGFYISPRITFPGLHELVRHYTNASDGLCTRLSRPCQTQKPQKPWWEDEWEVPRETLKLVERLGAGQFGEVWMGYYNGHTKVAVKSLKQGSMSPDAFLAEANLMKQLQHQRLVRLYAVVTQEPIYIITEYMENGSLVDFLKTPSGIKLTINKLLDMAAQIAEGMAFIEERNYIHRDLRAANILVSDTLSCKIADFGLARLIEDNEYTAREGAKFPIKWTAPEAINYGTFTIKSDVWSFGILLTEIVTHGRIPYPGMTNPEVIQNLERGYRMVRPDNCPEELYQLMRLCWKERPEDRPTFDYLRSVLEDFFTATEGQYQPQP
Adenosine receptor A2a, sequence (P29274 whole entry): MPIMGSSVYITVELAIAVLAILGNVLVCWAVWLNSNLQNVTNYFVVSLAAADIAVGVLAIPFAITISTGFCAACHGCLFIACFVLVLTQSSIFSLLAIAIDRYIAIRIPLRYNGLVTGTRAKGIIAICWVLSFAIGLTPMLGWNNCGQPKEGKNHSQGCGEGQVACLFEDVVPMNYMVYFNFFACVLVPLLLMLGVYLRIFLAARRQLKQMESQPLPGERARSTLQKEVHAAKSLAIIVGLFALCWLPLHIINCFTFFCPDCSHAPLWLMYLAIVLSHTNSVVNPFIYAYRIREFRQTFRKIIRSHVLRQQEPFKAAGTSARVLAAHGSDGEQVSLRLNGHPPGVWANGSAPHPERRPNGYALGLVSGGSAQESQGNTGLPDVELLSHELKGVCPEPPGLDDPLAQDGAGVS
Vascular endothelial growth factor receptor 1, sequence (P17948 whole entry): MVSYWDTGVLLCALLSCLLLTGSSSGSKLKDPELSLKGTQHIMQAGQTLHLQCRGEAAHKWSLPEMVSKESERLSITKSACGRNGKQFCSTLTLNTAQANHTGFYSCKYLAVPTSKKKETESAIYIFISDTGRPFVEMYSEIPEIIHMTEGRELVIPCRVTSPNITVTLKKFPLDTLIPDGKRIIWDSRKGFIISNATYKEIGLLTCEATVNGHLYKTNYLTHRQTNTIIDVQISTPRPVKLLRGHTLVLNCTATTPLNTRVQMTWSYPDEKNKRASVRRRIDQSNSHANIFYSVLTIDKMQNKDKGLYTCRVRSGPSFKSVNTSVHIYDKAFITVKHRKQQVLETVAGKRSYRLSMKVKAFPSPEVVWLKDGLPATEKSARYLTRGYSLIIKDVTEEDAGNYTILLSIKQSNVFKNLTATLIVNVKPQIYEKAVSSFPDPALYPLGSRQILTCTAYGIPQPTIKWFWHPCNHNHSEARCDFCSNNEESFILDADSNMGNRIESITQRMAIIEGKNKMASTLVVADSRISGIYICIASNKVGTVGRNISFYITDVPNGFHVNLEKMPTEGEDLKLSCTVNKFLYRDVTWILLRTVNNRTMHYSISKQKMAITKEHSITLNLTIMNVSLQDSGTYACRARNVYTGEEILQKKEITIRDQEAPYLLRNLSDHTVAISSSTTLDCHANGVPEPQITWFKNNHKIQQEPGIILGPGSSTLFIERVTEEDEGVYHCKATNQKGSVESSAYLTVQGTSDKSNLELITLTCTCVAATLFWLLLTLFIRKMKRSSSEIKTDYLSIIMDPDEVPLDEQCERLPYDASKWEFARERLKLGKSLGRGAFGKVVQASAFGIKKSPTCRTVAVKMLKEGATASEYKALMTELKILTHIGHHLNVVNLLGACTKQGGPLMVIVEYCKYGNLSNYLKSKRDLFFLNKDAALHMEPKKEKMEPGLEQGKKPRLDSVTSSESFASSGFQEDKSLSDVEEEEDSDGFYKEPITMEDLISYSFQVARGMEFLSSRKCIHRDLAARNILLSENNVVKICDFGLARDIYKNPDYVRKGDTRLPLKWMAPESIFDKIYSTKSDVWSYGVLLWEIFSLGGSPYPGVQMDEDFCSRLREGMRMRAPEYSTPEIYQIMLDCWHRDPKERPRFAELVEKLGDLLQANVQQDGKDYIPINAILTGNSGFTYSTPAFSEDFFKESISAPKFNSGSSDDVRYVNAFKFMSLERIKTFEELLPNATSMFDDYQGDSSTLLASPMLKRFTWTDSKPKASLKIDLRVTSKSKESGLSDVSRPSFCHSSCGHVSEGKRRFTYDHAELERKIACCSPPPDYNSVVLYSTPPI

CN1C(C(=O)Nc2ccccn2)=C(O)c2sccc2S1(=O)=O [TENOXICAM]
Not Active: IC50 [1] | IC50 [2] | Ki [2] | IC50 (Vasopressin V1a receptor) | IC50 [3] | IC50 [4] | IC50 [5] | IC50 (Adenosine receptor A1) | IC50 [6] | IC50 (Adenosine receptor A2a) | IC50 [7] | IC50 [8] | Ki [8]

CC(C)(C)c1ccc(C(O)CCCN2CCC(C(O)(c3ccccc3)c3ccccc3)CC2)cc1 (configuration not stated) [TERFENADINE]
Not Active: IC50 [1] | IC50 [2] | Ki [2] | IC50 (Vasopressin V1a receptor) | IC50 [3] | IC50 [4] | IC50 [5] | IC50 (Adenosine receptor A1) | IC50 [6] | IC50 (Adenosine receptor A2a) | IC50 [7] | IC50 [8] | Ki [8]

O=C1CCC(N2C(=O)c3ccccc3C2=O)C(=O)N1 (configuration not stated) [THALIDOMIDE]
Not Active: IC50 [1] | IC50 [2] | Ki [2] | IC50 (Vasopressin V1a receptor) | IC50 [3] | IC50 [4] | IC50 [5] | IC50 (Adenosine receptor A1) | IC50 [6] | IC50 (Adenosine receptor A2a) | IC50 [7] | IC50 [8] | Ki [8]

Cc1cccc(Nc2ccncc2S(=O)(=O)NC(=O)NC(C)C)c1 [TORSEMIDE]
Not Active: IC50 [1] | IC50 [2] | Ki [2] | IC50 (Vasopressin V1a receptor) | IC50 [3] | IC50 [4] | IC50 [5] | IC50 (Adenosine receptor A1) | IC50 [6] | IC50 (Adenosine receptor A2a) | IC50 [7] | IC50 [8] | Ki [8]

CC(C)C[C@H](NC(=O)[C@@H](O)[C@H](N)Cc1ccccc1)C(=O)O [UBENIMEX]
Not Active: IC50 [1] | IC50 [2] | Ki [2] | IC50 (Vasopressin V1a receptor) | IC50 [3] | IC50 [4] | IC50 [5] | IC50 (Adenosine receptor A1) | IC50 [6] | IC50 (Adenosine receptor A2a) | IC50 [7] | IC50 [8] | Ki [8]

Cc1onc(-c2ccccc2)c1-c1ccc(S(N)(=O)=O)cc1 [VALDECOXIB]
Not Active: IC50 [1] | IC50 [2] | Ki [2] | IC50 (Vasopressin V1a receptor) | IC50 [3] | IC50 [4] | IC50 [5] | IC50 (Adenosine receptor A1) | IC50 [6] | IC50 (Adenosine receptor A2a) | IC50 [7] | IC50 [8] | Ki [8]

CC[C@]1(O)C[C@@H]2CN(CCc3c([nH]c4ccccc34)[C@@](C(=O)OC)(c3cc4c(cc3OC)N(C)[C@H]3[C@@](O)(C(=O)OC)[C@H](OC(C)=O)[C@]5(CC)C=CCN6CC[C@]43[C@@H]65)C2)C1 [VINBLASTINE]
Not Active: IC50 [1] | IC50 [2] | Ki [2] | IC50 (Vasopressin V1a receptor) | IC50 [3] | IC50 [4] | IC50 [5] | IC50 (Adenosine receptor A1) | IC50 [6] | IC50 (Adenosine receptor A2a) | IC50 [7] | IC50 [8] | Ki [8]

CC(=O)CC(c1ccccc1)c1c(O)c2ccccc2oc1=O (configuration not stated) [WARFARIN]
Not Active: IC50 [1] | IC50 [2] | Ki [2] | IC50 (Vasopressin V1a receptor) | IC50 [3] | IC50 [4] | IC50 [5] | IC50 (Adenosine receptor A1) | IC50 [6] | IC50 (Adenosine receptor A2a) | IC50 [7] | IC50 [8] | Ki [8]

[Cl-].[Cl-].[Zn+2] [ZINC CHLORIDE]
Not Active: IC50 [1] | IC50 [2] | Ki [2] | IC50 (Vasopressin V1a receptor) | IC50 [3] | IC50 [4] | IC50 [5] | IC50 (Adenosine receptor A1) | IC50 [6] | IC50 (Adenosine receptor A2a) | IC50 [7] | IC50 [8] | Ki [8]

— ChEMBL document CHEMBL1909046, “DrugMatrix in vitro pharmacology data”
